Laboratory results published in publication PMC5382548 (Scientific Reports, 2015).
Like-named read-outs stand apart in the source and are kept apart here.

How the values were obtained:
A594 (lung) = assay: SRB short-term cytotoxicity assay, A594; assay type: cell-based, human; conditions: for IC50: Homo sapiens, 96 h
Protocol: (§1) Short-term anti-proliferative assays were carried out by two different assays using a panel of human cancer and non-malignant human cell lines. […] The transformed human embryonic kidney cell line HEK293T (wt KRAS) was sensitive to all tested drugs, including TMPyP4, a cationic porphyrin established as a G4 ligand, as well as the anticancer drug 5-fluorouracil (5-FU).
(§2) Human cell lines, breast carcinoma (MCF7), lung carcinoma (A549), pancreatic cancer (MIA PaCa2, Panc-1), immortalised telomerase-negative human lung fibroblast (ALT) and normal human lung fibroblast (WI-38), were all purchased from American Type Cell Culture (ATCC). Cell lines were maintained in appropriate medium supplemented with 10% fetal bovine serum (Invitrogen, UK), 2 mM L-glutamine (Invitrogen, Netherlands), and other components as specified by the suppliers. All cell lines were maintained at 37°C, 5% CO2, and routinely passaged. Short-term growth inhibition was measured using the SRB assay as described previously[43] (additional details described in Supplementary Information). […]
(§3) Sulforhodamine B (SRB) short-term cytotoxicity assay
(§4) Cells were seeded at appropriate densities into the wells of 96 well plates in their corresponding medium and incubated overnight to allow the cells to attach. Subsequently cells were exposed to various concentrations of freshly made solutions of drugs and incubated for 96 h. The cells were subsequently fixed with ice-cold trichloacetic acid (TCA) (10%, w/v) for 30 min and stained with 0.4% SRB dissolved in 1% acetic acid for 15 min.
(§5) All incubations were carried out at room temperature except for TCA fixation, which was at 4 °C. The IC50 value, the concentration required to inhibit cell growth by 50%, was determined from the mean absorbance at 540 nm for each drug concentration expressed as a percentage of the control untreated well absorbance. (Performed at School of Pharmacy, University College of London). […]
(#sc-30/sc-126; Santa Cruz Biotechnology Inc., Santa Cruz, CA, USA). Finally, immunoblots were incubated with secondary anti-mouse antibody conjugated with horseradish peroxidase (BioRad) for 3 h at room temperature. The membranes were processed for protein detection using Super Signal substrate (Pierce, Rockford, IL, USA). β-Actin (#A-5441, Sigma–Aldrich) was used as a loading control. Steady-state protein levels were expressed as mean ±SEM from at least three independent experiments.

[1] = system: Panc1 (chemo-resistant pancreatic); assay: SRB short-term cytotoxicity assay, Panc1; assay type: cell-based; conditions: Homo sapiens, PANC-1, 96 h
Protocol: as §1, §2, §3, §4, §5
(#sc-30/sc-126; Santa Cruz Biotechnology Inc., Santa Cruz, CA, USA). […]

[2] = system: HEK293T (embryonic kidney); assay: MTS short-term cytotoxicity assay, HEK293T; assay type: cell-based; conditions: Homo sapiens, HEK-293T, 72 h, read-out: IC50 HEK293T
Protocol: as §1
HCT116 human colon carcinoma cells, SW620 human colorectal adenocarcinoma and HEK293 T human embryonic kidney cells were grown in Dulbecco's modified Eagle's medium (DMEM) supplemented with 10% fetal bovine serum, and 1% antibiotic/antimycotic (Invitrogen, Grand Island, NY, USA) and maintained at 37°C in a humidified atmosphere of 5% CO2. Cells were seeded in 96 well plates at 5.000 cells/well. Twenty-four hours after cell plating, media was removed and replaced with fresh media containing test compounds and 5-FU (Sigma), a common cytotoxic agent used in colon cancer treatmen, or vehicle control (DMSO). Following 72 h of compound exposure, cell viability was evaluated using the CellTiter 96 AQueous Non-Radioactive Cell Proliferation Assay (Promega, Madison, WI, USA), using 3-(4,5-dimethylthiazol-2-yl)-5-(3-carboxymethoxyphenyl)-2-(4-sulfophenyl)-2H-tetrazolium, inner salt (MTS) as previously described. Cell viability data were expressed as mean ± SEM or mean ± SD from at least three independent experiments. IC50 and IC65 values were determined using GaphPad Prism v.5.00 (GraphPad Software). (Performed at Cell Function and Therapeutic Targeting Group, iMed.ULisboa)

Row | Structure (SMILES) | Selectivity index SI = IC50(WI-38)/IC50(A594) (A594 (lung)) | IC50 (A594 (lung)) [nM] | IC50 [1] [nM] | IC50 ([2]; MTS assay) [nM] | IC50 [2] [nM]
1 | CCN(CC)CCCNc1ccc2c(c1)[nH]c1c2c[n+](C)c2ccc(NCCCN(CC)CC)cc12.[Cl-] [3e] | 7.0 | 1450 | 4800 | 3120 | –
2 | CCN(CC)CCCNc1ccc2c(c1)c1[nH]c3ccccc3c1c[n+]2C [2d] | – | 400 | 220 | 640 | –
3 | C[n+]1ccc(-c2c3nc(c(-c4cc[n+](C)cc4)c4ccc([nH]4)c(-c4cc[n+](C)cc4)c4ccc([nH]4)c(-c4cc[n+](C)cc4)c4nc2C=C4)C=C3)cc1 [TMPyP4, reference compound] | – | – | – | – | 2970
4 | Cn1cc2c3ccccc3nc-2c2cc(Br)ccc21 [2a, 2-bromo-5-methyl-indolo[3,2-c]quinoline] | 9.3 | 670 | 2750 | 300 | –
5 | CCN(CC)CCCNc1ccc2[nH]c3c(c[n+](C)c4ccc(NCCCN(CC)CC)cc34)c2c1.[Cl-] [3d] | – | – | – | 6570 | –
